Reference: US10556866B2, “ROR gamma (RORγ) modulators” (LEAD PHARMA HOLDING B.V., priority 2015, dated 2020)

Target: T1, RORγ (Homo sapiens, UniProt P51449)
T1 construct: expressed in transfected cells; host or cells: 293FT cells (Invitrogen), expression vector pFN26A (Promega)
T1 sequence (P51449 269-508 limits assumed): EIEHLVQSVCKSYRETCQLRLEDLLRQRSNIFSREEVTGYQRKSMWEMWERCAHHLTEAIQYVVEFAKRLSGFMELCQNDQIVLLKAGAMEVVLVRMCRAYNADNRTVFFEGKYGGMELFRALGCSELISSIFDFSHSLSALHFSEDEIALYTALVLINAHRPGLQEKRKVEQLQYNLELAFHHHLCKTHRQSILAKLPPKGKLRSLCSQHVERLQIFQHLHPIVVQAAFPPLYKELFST
Experiment: RORγ GAL4 reporter gene assay (luciferase readout)
Assay type: cell-based
Details: inhibition of RORγ (GAL4-RORγ-LBD) in 293FT cells, luciferase signal; read-out: mean pIC50 (converted)
Protocol: Example inhibitors 1-38 were tested for their ability to inhibit RORγ activity in a RORγ GAL4 reporter gene assay. The assay procedure and results are described below.
A GAL4 one-hybrid reporter system employing luciferase readout was established to determine inhibition of RORγ in 293FT cells. The RORγ ligand-binding domain (LBD) was fused to the yeast GAL4 DNA binding domain (DBD) and placed under the control of the human cytomegalovirus (CMV) immediate early promoter, using expression vector pFN26A (Promega) and standard recombinant DNA cloning methods. To serve as a control in the assay, a similar vector was generated in which the GAL4-DBD was fused to Herpes simplex virus protein 16 (VP16), a constitutive transcriptional activator.
To monitor the inhibitory effect of compounds on RORγ, a transcriptional reporter construct was used. The pGL4.35 vector (Promega) contains nine copies of the GAL4 Upstream Activator Sequence (UAS). This sequence drives the transcription of the luciferase reporter gene luc2P in response to binding of a fusion protein containing the GAL4 DNA binding domain, as for example expressed by the GAL4-RORγ-LBD and GAL4-VP16 expression vectors described above. To allow a GAL4 fusion protein to drive the expression of the luciferase reporter, the pGL4.35 expression vector and the appropriate GAL4 fusion protein expression vector were bulk transfected in the 293FT cells using standard transfection techniques.
The day after transfection, cells were plated into 96 well plates, test compound was added and the plates were incubated overnight. Subsequently, the firefly luciferase activity was quantified using luciferase detection reagent and luminescence readout.
293FT cells (Invitrogen) were transfected with a GAL4 fusion protein expression vector (as described above) and the transcriptional reporter construct (pGL4.35, Promega). 60 μL of TransIT-293 transfection reagent (Mirus Bio) was added drop wise to 1500 μl Opti-MEM I Reduced Serum Medium (Invitrogen) and incubated at RT (RT) for 5 to 20 minutes. 1500 μL of this reagent mixture was added to 5 μg of GAL4 fusion protein expression vector and 5 μg of the transcriptional reporter construct, and incubated at RT for 20 minutes.
To harvest 293FT cells from a T75 flask, first the culture medium was taken off the cells. Subsequently, the cells were washed with Phosphate Buffered Saline (PBS) (Lonza), after which the PBS was removed. To dissociate the cells, 1 ml of TrypLE Express (Invitrogen) was added to the flask, followed by incubation at RT until the cells visually started to detach. Cells were collected in 5 mL of assay medium (DMEM culture medium (Lonza), 10% dialyzed FBS (Invitrogen) and Pen/Strep (Lonza)) to achieve a single cell suspension. 10×10^6 cells were spun down and re-suspended in 10 mL of assay medium. Subsequently, the cell suspension was added to the transfection mix tube, and then transferred as a whole to a T75 flask (Greiner), followed by overnight (16-24 hours) incubation at 37° C. and 5% CO2.
For compound screening, the cells were harvested (as described above) and counted. 13×10^6 cells were spun down, the supernatant was aspirated and the cells were re-suspended in 17.3 mL of assay medium obtaining a cell suspension of 0.75×10^6 cells/mL. 80 μL of cell suspension (60,000 cells) was plated per well into a white, flat bottom, tissue culture treated, 96 well screening plates (Greiner).
Test compounds were diluted, starting from a 10 mM dimethylsulfoxide (DMSO) stock solution, to serial dilutions in DMSO at 500× the final test concentration. Subsequently, these solutions were diluted to 5× the final test concentration in two 10-fold-dilution steps in assay medium. The final DMSO concentration of the 5× test compound solution was 1%. 20 μL of the 5× test compound solution was added to each test well of the 96 well plate previously plated with 80 μl cell suspension, resulting in the final test concentration with 0.2% DMSO. […]

SMILES | IC50 [nM]
O=C(NCc1ccc(S(=O)(=O)CC2CC2)cc1)c1ccc(C(O)(C(F)F)C(F)(F)F)cc1 (stereo not shown) [Example 5, N-[[4-(cyclopropylmethylsulfonyl)phenyl]methyl]-4-[1-(difluoromethyl)-2,2,2-trifluoro-1-hydroxy-ethyl]benzamide] | ≤ 1000
CCCCOC(c1ccc(C(=O)NCc2ccc(S(=O)(=O)CC3CC3)cc2)cc1)(C(F)(F)F)C(F)(F)F [Example 25, 4-[1-butoxy-2,2,2-trifluoro-1-(trifluoromethyl)ethyl]-N-[[4-(cyclopropylmethylsulfonyl)phenyl]methyl]benzamide] | ≤ 100
COC(CC(C)(C)C)(c1ccc(C(=O)NCc2ccc(S(=O)(=O)CC3CC3)cc2)cc1)C(F)(F)F (stereo not shown) [Example 33, N-[[4-(cyclopropylmethylsulfonyl)phenyl]methyl]-4-[1-methoxy-3,3-dimethyl-1-(trifluoromethyl)butyl]benzamide] | ≤ 100
C[C@@H](NC(=O)c1ccc(C(O)(C(F)(F)F)C(F)(F)F)cc1)c1ccc(S(=O)(=O)CC2CC2)cc1 [Example 34, N-[(1R)-1-[4-(cyclopropylmethylsulfonyl)phenyl]ethyl]-4-[2,2,2-trifluoro-1-hydroxy-1-(trifluoromethyl)ethyl]benzamide] | < 10000
C[C@H](NC(=O)c1ccc(C(O)(C(F)(F)F)C(F)(F)F)cc1)c1ccc(S(=O)(=O)CC2CC2)cc1 [Example 35, N-[(1S)-1-[4-(cyclopropylmethylsulfonyl)phenyl]ethyl]-4-[2,2,2-trifluoro-1-hydroxy-1-(trifluoromethyl)ethyl]benzamide] | ≤ 1000
Cc1cc(C(O)(c2ccc(C(=O)NCc3ccc(S(=O)(=O)CC4CC4)cc3)cc2)C(C)C)no1 (stereo not shown) [Example 36, N-[[4-(cyclopropylmethylsulfonyl)phenyl]methyl]-4-[1-hydroxy-2-methyl-1-(5-methylisoxazol-3-yl)propyl]benzamide] | ≤ 100
Cc1cc(C(O)(c2ccc(C(=O)NCc3ccc(S(=O)(=O)CC4CC4)cc3)cc2)C2CC2)no1 (stereo not shown) [Example 37, 4-[cyclopropyl-hydroxy-(5-methylisoxazol-3-yl)methyl]-N-[[4-(cyclopropylmethylsulfonyl)phenyl]methyl]benzamide] | ≤ 1000
Cc1cc(C(O)(c2ccc(C(=O)NCc3ccc(S(=O)(=O)CC4CC4)cc3)cc2)C(C)(C)C)no1 (stereo not shown) [Example 38, N-[(4-(cyclopropylmethylsulfonyl)phenyl)methyl]-4-[1-hydroxy-2,2-dimethyl-1-(5-methylisoxazol-3-yl)propyl]benzamide] | ≤ 100

Next, values leading:

IC50 [nM] | SMILES
≤ 100 | CC(C)OC(c1ccc(C(=O)NCc2ccc(S(=O)(=O)CC3CC3)cc2)cc1)(C(F)(F)F)C(F)(F)F [Example 26, N-[[4-(cyclopropylmethylsulfonyl)phenyl]methyl]-4-[2,2,2-trifluoro-1-isopropoxy-1-(trifluoromethyl)ethyl]benzamide]
≤ 1000 | O=C(NCc1ccc(S(=O)(=O)CC2CC2)cc1)c1ccc(C(OCc2ccccc2)(C(F)(F)F)C(F)(F)F)cc1 [Example 27, 4-[1-benzyloxy-2,2,2-trifluoro-1-(trifluoromethyl)ethyl]-N-[[4-(cyclopropylmethylsulfonyl)phenyl]methyl]benzamide]
≤ 100 | COC(c1ccc(C(=O)NCc2ccc(S(=O)(=O)CC3CC3)cc2C)cc1)(C(F)(F)F)C(F)(F)F [Example 28, N-[[4-(cyclopropylmethylsulfonyl)-2-methyl-phenyl]methyl]-4-[2,2,2-trifluoro-1-methoxy-1-(trifluoromethyl)ethyl]benzamide]
≤ 100 | CCOC(c1ccc(C(=O)NCc2ccc(S(=O)(=O)CC3CC3)cc2C)cc1)(C(F)(F)F)C(F)(F)F [Example 29, N-[[4-(cyclopropylmethylsulfonyl)-2-methyl-phenyl]methyl]-4-[1-ethoxy-2,2,2-trifluoro-1-(trifluoromethyl)ethyl]benzamide]
≤ 1000 | COC(c1ccc(C(=O)NCc2ccc(S(=O)(=O)NC3CC3)cc2)cc1)(C(F)(F)F)C(F)(F)F [Example 30, N-[[4-(cyclopropylsulfamoyl)phenyl]methyl]-4-[2,2,2-trifluoro-1-methoxy-1-(trifluoromethyl)ethyl]benzamide]
≤ 1000 | CCOC(c1ccc(C(=O)NCc2ccc(S(=O)(=O)NC3CC3)cc2)cc1)(C(F)(F)F)C(F)(F)F [Example 31, N-[[4-(cyclopropylsulfamoyl)phenyl]methyl]-4-[1-ethoxy-2,2,2-trifluoro-1-(trifluoromethyl)ethyl]benzamide]
≤ 1000 | CCCOC(c1ccc(C(=O)NCc2ccc(S(=O)(=O)NC3CC3)cc2)cc1)(C(F)(F)F)C(F)(F)F [Example 32, N-[[4-(cyclopropylsulfamoyl)phenyl]methyl]-4-[2,2,2-trifluoro-1-propoxy-1-(trifluoromethyl)ethyl]benzamide]

Tested on: IL-17A production in anti-CD3/anti-CD28 stimulated peripheral blood mononuclear cells (PBMCs)
Experiment: Peripheral blood mononuclear cell (PBMC) IL-17 assay
Assay type: cell-based
Details: 120 h, inhibition of IL-17A production, human PBMCs, 5 days, IL-17 ELISA, read-out: mean pIC50 (converted)
Protocol: Example inhibitor 5 was tested for its ability to inhibit the IL-17A production in anti-CD3/anti-CD28 stimulated peripheral blood mononuclear cells (PBMCs) isolated from human blood. The assay procedure and results are described below.
This assay is designed to measure the levels of IL-17A secreted from anti-CD3/anti-CD28 stimulated PBMCs with the aim of measuring RORγ mediated inhibition of IL-17A production.
The assay medium consists of 90% RPMI 1640 (Lonza), 10% heat inactivated fetal bovin serum (FBS, Lonza) and 100 U/mL penicillin/streptomycin solution.
Anti-CD3 antibody (BD Pharmingen) was diluted to 10 μg/ml in PBS (Lonza). 30 μL of 10 μg/ml anti-CD3 solution was added to the inner 60 wells, excluding any negative control wells, of a 96-well cell culture treated U-bottom plate (Greiner). Plates were incubated overnight (16-24 hours) at 37° C. and 5% CO2. […]
After incubation the plates were spun down at 1500 rpm for 4 minutes and the supernatant was collected. Subsequently, the IL-17A levels in the supernatants was determined using an IL-17 ELISA kit (human IL-17 DuoSet, R&D systems) according to manufacturer's protocol.
The half maximum inhibitory concentration (IC50) values for the test compounds were calculated from the IL-17A signal using GraphPad Prism software (GraphPad Software).

SMILES | IC50 [nM]
O=C(NCc1ccc(S(=O)(=O)CC2CC2)cc1)c1ccc(C(O)(C(F)F)C(F)(F)F)cc1 (stereo not shown) [Example 5, N-[[4-(cyclopropylmethylsulfonyl)phenyl]methyl]-4-[1-(difluoromethyl)-2,2,2-trifluoro-1-hydroxy-ethyl]benzamide] | 100
